Reference: patent US20250195521A1 (Revolution Medicines, Inc., priority 2020, published 2025)
Read-outs that look alike come from different tables or passages of the source.

Conditions: 18-membered ring

(6^3S,3S,4S,Z)-4-(dibenzylamino)-1^1-ethyl-3-methoxy-1^2-(2-((S)-1-methoxyethyl) pyridin-3-yl)-10, 10-dimethyl-6^1,6^2,6^3,6^4,6^5,6^6-hexahydro-1^1H-8-oxa-2 (4,2)-thiazola-1 (5,3)-indola-6 (1,3)-pyridazinacycloundecaphane-5,7-dione
ring closure, isolated yield (cc_pd bond, Pd(DtBPF)Cl2/K3PO4, dioxane/H2O 5:1, 40.0 mM, 80.0 °C): 44.4%

(9H-fluoren-9-yl) methyl (1R,5S,7r)-7-(5-((6^3S,3S,4S,Z)-4-((tert-butoxycarbonyl) amino)-3-ethoxy-1^1-ethyl-10, 10-dimethyl-5,7-dioxo-6^1,6^2,6^3,6^4,6^5,6^6-hexahydro-1^1H-8-oxa-2 (4,2)-thiazola-1 (5,3)-indola-6 (1,3)-pyridazinacycloundecaphane-12-yl)-6-((S)-1-methoxyethyl) pyridin-3-yl)-3-oxa-9-azabicyclo[3.3.1]nonane-9-carboxylate
ring closure, isolated yield (cc_pd bond, Pd(DtBPF)Cl2/K3PO4, toluene/1,4-dioxane/H2O (3:1:1), […], 80.0 °C): 65%

(9H-fluoren-9-yl) methyl ((6^3S,4S,Z)-3-(dimethylamino)-1^1-ethyl-1^2-(2-((S)-1-methoxyethyl) pyridin-3-yl)-10, 10-dimethyl-5,7-dioxo-6^1,6^2,6^3,6^4,6^5,6^6-hexahydro-1^1H-8-oxa-2 (4,2)-thiazola-1 (5,3)-indola-6 (1,3)-pyridazinacycloundecaphane-4-yl) carbamate
ring closure, isolated yield (cc_pd bond, Pd(dtbpf)Cl2/K3PO4, toluene/1,4-dioxane/H2O 3:1:1, 27.3 mM, 60.0 °C): 19%

(9H-fluoren-9-yl)methyl-7-(5-((6^3S,3S,4S,Z)-4-((tert-butoxycarbonyl) amino)-3-ethoxy-1^1-ethyl-10,10-dimethyl-5,7-dioxo-6^1,6^2,6^3,6^4,6^5,6^6-hexahydro-1^1H-8-oxa-2 (4,2)-thiazola-1 (5,3)-indola-6 (1,3)-pyridazinacycloundecaphane- 12-yl)-6-((S)-1-methoxyethyl) pyridin-3-yl)-3-oxa-9-azabicyclo[3.3.1] non-6-ene-9-carboxylate
ring closure, isolated yield (cc_pd bond, Pd(dppf)Cl2.DCM/K3PO4, toluene/dioxane/H2O 3:1:1, 205.0 mM, 80.0 °C): 49%

benzyl 4-(5-((3′S,3′S,4′S,Z)-4′-((tert-butoxycarbonyl) amino)-3′-ethoxy-1′-(2-isopropoxyethyl)-5′, 7′-dioxospiro[cyclopropane-1,10′-8-oxa-2 (4,2)-thiazola-1 (5,3)-indola-6 (1,3)-pyridazinacycloundecaphan]-2′-yl)-6-((S)-1-methoxyethyl) pyridin-3-yl) piperazine-1-carboxylate
ring closure, isolated yield (cc_pd bond, XPhos-Pd-G3/XPhos/K3PO4, toluene/1,4-dioxane/H2O 3:1:1, 28.0 mM, 65.0 °C): 27%

benzyl 4-(5-((6^3S,3S,4S,Z)-4-((tert-butoxycarbonyl) amino)-3-ethoxy-1^1-(2-isopropoxyethyl)-10,10-dimethyl-5,7-dioxo-6^1,6^2,6^3,6^4,6^5,6^6-hexahydro-1^1H-8-oxa-2 (4,2)-thiazola-1 (5,3)-indola-6 (1,3)- pyridazinacycloundecaphane-12-yl)-6-((S)-1-methoxyethyl) pyridin-3-yl) piperazine-1-carboxylate
ring closure, isolated yield (cc_pd bond, Pd(dtbpf)Cl2/K3PO4, toluene/1,4-dioxane/H2O 3:1:1, 16.0 mM, 65.0 °C): 44%

benzyl 4-((((6^3S,3S,4S,Z)-4-((tert-butoxycarbonyl) amino)-1^1-ethyl-1^2-(2-((S)-1-methoxyethyl) pyridin-3-yl)-10,10-dimethyl-5,7-dioxo-6^1,6^2,6^3,6^4,6^5,6^6-hexahydro-1^1H-8-oxa-2 (4,2)-thiazola-1 (5,3)-indola-6 (1,3)-pyridazinacycloundecaphane-3-yl)oxy) methyl)-3,6-dihydropyridine-1 (2H)-carboxylate
ring closure, isolated yield (cc_pd bond, Pd(dtbpf)Cl2/K3PO4, toluene/dioxane/H2O, 60.0 °C): 32%

benzyl 5-((6^3S,3S,4S,Z)-4-((tert-butoxycarbonyl) amino)-3-ethoxy-1^1-ethyl-10, 10-dimethyl-5,7-dioxo-6^1,6^2,6^3,6^4,6^5,6^6-hexahydro-1^1H-8-oxa-2 (4,2)-thiazola-1 (5,3)-indola-6 (1,3)-pyridazinacycloundecaphane-12-yl)-6-((S)-1-methoxyethyl)-3′, 6′-dihydro-[3,4′-bipyridine]-1′ (2′H)-carboxylate
ring closure, isolated yield (cc_pd bond, Pd(dtbpf)Cl2/K3PO4, toluene/1,4-dioxane/H2O 3:1:1, 40.7 mM, 70.0 °C): 39%

tert-butyl ((2^2R,6^3S,4S)-1^1-ethyl-1^2-(2-((S)-1-methoxyethyl) pyridin-3-yl)-22-(methoxymethyl)-10,10-dimethyl-5,7-dioxo-2^1,2^2,2^3,2^6,6^1,6^2,6^3,6^4,6^5,6^6-decahydro-1^1H-8-oxa-1 (5,3)-indola-6 (1,3)-pyridazina-2 (5,1)-pyridinacycloundecaphane-4-yl) carbamate
ring closure, isolated yield (cc_pd bond, Pd(dppf)Cl2/K3PO4, toluene/dioxane/H2O, […], 70.0 °C): 30%

tert-butyl ((6^3S,3S,4S,Z)-3-(2,2-difluoroethoxy)-1^1-ethyl-1^2-(2-((S)-1-methoxyethyl) pyridin-3-yl)-10,10-dimethyl-5,7-dioxo-6^1,6^2,6^3,6^4,6^5,6^6-hexahydro-1^1H-8-oxa-2 (4,2)-thiazola-1 (5,3)-indola-6 (1,3)-pyridazinacycloundecaphane-4-yl) carbamate
ring closure, isolated yield (cc_pd bond, Pd(dtbpf)Cl2/K3PO4, toluene/dioxane/H2O, 10.0 mM, 60.0 °C): 59%

tert-butyl ((6^3S,3S,4S,Z)-3-ethoxy-1^1-ethyl-1^2-(2-((S)-1-methoxyethyl) pyridin-3-yl)-10, 10-dimethyl-5,7-dioxo-6^1,6^2,6^3,6^4,6^5,6^6-hexahydro-1^1H-8-oxa-2 (4,2)-thiazola-1 (5,3)-indola-6 (1,3)-pyridazinacycloundecaphane-4-yl) carbamate
ring closure, isolated yield (cc_pd bond, Pd(dtbpf)Cl2/K3PO4, toluene/dioxane/H2O, 26.7 mM, 60.0 °C): 31%

tert-butyl ((6^3S,4S)-2^3-((tert-butyldiphenylsilyl)oxy)-1^1-ethyl-1^2-(2-((S)-1-methoxyethyl) pyridin-3-yl)-10,10-dimethyl-5,7-dioxo-2^1,2^2,2^3,2^6,6^1,6^2,6^3,6^4,6^5,6^6-decahydro-1^1H-8-oxa-1 (5,3)-indola-6 (1,3)- pyridazina-2 (5,1)-pyridinacycloundecaphane-4-yl) carbamate
ring closure, isolated yield (cc_pd bond, Pd(dppf)Cl2/K2CO3, toluene/1,4-dioxane/H2O 3:1:1, 20.0 mM, 65.0 °C): 42%

tert-butyl ((6^3S,4S)-25-(difluoromethyl)-1^1-ethyl-1^2-(2-((S)-1-methoxyethyl) pyridin-3-yl)-10,10-dimethyl-5,7-dioxo-6^1,6^2,6^3,6^4,6^5,6^6-hexahydro-1^1H-8-oxa-1 (5,3)-indola-6 (1,3)-pyridazina-2 (1,3)-benzenacycloundecaphane-4-yl) carbamate
ring closure, isolated yield (ester bond, EDCI/HOBt/DIEA, DCM): 51%

tert-butyl ((6^3S,4S,Z)-1^1-ethyl-1^2-(2-((S)-1-methoxyethyl) pyridin-3-yl)-10,10-dimethyl-5,7-dioxo-6^1,6^2,6^3,6^4,6^5,6^6-hexahydro-1^1H-8-oxa-2 (2,4)-oxazola-1 (5,3)-indola-6 (1,3)-pyridazinacycloundecaphane-4-yl) carbamate
ring closure, isolated yield (cc_pd bond, XPhos Pd G3/XPhos/K3PO4, dioxane/H2O 5:1, 55.0 mM, 70.0 °C): 56%

tert-butyl ((6^3S,4S,Z)-1^1-ethyl-1^2-(2-((S)-1-methoxyethyl) pyridin-3-yl)-21, 10, 10-trimethyl-5,7-dioxo-6^1,6^2,6^3,6^4,6^5,6^6-hexahydro-11H,21H-8-oxa-1 (5,3)-indola-6 (1,3)-pyridazina-2 (5,3)-triazolacycloundecaphane-4-yl) carbamate
ring closure, isolated yield (cc_pd bond, XPhos Pd G3/XPhos/K3PO4, dioxane/H2O 5:1, 71.7 mM, 75.0 °C): 56.8%
